Assay results published in patent US8541588B2, “Sulfonamide derivatives” (Pfizer Limited, priority 2009, dated 2013).

Biological target: T1, Nav1.7 (or SCN9A) channel; HEK cells stably transfected with hSCN9A (Homo sapiens, UniProt Q15858)
T1 construct: expressed in transfected cells
Assay: Nav1.7 block, PatchXpress 7000 automated whole-cell voltage clamp, estimated IC50 (EIC50)
Format: cell-based
Conditions: estimated IC50, PatchXpress platform

[1] = hSCN9A HEK cells, Examples 283-814
[2] = hSCN9A HEK cells, Examples 815-1040
[3] = hSCN9A HEK cells held at V1/2 of inactivation

T1 sequence (Q15858 whole entry): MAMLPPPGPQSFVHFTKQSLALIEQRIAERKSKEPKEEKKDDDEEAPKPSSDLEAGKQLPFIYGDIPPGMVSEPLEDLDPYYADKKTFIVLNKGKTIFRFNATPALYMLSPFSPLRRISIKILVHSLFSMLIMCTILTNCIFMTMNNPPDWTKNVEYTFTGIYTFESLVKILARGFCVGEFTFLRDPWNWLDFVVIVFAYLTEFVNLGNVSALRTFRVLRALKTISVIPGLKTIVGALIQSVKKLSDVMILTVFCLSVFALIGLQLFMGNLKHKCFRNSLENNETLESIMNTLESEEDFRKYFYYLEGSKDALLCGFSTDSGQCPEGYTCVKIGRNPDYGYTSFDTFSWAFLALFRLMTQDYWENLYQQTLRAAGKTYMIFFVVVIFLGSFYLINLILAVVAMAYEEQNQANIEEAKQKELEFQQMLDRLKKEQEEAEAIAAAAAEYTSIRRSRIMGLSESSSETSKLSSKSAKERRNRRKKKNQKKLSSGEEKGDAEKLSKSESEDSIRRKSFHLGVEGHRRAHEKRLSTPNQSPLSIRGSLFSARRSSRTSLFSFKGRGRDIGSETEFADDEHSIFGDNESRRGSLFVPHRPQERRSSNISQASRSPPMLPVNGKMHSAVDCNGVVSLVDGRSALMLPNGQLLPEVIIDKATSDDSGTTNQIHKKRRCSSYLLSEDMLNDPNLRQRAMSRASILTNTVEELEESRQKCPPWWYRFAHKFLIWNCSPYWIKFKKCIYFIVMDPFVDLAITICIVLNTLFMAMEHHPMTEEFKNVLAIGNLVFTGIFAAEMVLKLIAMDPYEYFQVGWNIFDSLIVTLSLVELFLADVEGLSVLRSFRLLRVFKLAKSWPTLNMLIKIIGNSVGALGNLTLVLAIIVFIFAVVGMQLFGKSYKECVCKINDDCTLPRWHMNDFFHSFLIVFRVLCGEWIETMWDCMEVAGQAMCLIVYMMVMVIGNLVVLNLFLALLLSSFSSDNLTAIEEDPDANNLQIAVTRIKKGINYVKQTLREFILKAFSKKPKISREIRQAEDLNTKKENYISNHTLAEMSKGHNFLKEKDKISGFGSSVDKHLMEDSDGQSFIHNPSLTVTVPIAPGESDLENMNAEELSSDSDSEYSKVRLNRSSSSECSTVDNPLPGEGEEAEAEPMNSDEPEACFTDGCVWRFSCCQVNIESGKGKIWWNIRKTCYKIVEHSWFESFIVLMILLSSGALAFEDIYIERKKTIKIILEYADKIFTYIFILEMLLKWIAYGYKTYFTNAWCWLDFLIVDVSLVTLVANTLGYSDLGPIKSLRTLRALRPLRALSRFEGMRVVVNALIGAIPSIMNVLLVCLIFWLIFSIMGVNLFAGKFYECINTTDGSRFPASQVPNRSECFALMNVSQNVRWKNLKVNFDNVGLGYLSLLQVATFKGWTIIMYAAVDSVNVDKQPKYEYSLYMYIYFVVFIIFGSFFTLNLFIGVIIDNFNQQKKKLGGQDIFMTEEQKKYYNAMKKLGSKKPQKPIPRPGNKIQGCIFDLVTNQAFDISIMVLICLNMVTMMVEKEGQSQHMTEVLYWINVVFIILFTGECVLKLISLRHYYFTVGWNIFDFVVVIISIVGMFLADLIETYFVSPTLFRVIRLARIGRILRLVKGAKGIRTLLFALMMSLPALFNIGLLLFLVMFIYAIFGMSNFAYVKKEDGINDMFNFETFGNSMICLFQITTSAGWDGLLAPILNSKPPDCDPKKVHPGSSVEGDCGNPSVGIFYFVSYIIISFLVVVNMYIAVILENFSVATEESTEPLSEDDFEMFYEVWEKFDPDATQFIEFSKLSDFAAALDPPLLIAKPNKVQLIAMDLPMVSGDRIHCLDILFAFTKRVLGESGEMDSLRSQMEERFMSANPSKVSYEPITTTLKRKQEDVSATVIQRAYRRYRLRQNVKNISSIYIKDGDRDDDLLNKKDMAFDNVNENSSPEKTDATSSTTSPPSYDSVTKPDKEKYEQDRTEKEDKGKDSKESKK

IC50 [1] [nM] | SMILES | also measured
110 | N#Cc1cc(S(=O)(=O)Nc2nccs2)ccc1Oc1ccc(Cl)cc1C1CNC1 [Example 690, 4-(2-azetidin-3-yl-4-chlorophenoxy)-3-cyano-N-1,3-thiazol-2-ylbenzenesulfonamide] | –
30 | Nc1cccc(-c2cc(F)ccc2Oc2cc(F)c(S(=O)(=O)Nc3ncns3)cc2Cl)n1 [Example 617, 4-[2-(6-aminopyridin-2-yl)-4-fluorophenoxy]-5-chloro-2-fluoro-N-1,2,4-thiadiazol-5-ylbenzenesulfonamide] | –
– | O=S(=O)(Nc1nncs1)c1cc(Cl)c(Oc2ccc(Cl)cc2-c2cccc(CN3CCC3)n2)cc1F [Example 831, 4-{2-[6-(azetidin-1-ylmethyl)pyridin-2-yl]-4-chlorophenoxy}-5-chloro-2-fluoro-N-1,3,4-thiadiazol-2-ylbenzenesulfonamide] | IC50 [2]: 63 nM
6.9 | O=S(=O)(Nc1ncns1)c1cc(Cl)c(Oc2cc(F)ccc2-c2ccn[nH]2)cc1F [Example 773, 5-chloro-2-fluoro-4-[5-fluoro-2-(1H-pyrazol-5-yl)phenoxy]-N-1,2,4-thiadiazol-5-ylbenzenesulfonamide] | –
9.9 | CN1CC(n2nccc2-c2cc(Cl)ccc2Oc2cc(F)c(S(=O)(=O)Nc3cscn3)cc2Cl)C1 [Example 730, 5-chloro-4-{4-chloro-2-[1-(1-methylazetidin-3-yl)-1H-pyrazol-5-yl]phenoxy}-2-fluoro-N-1,3-thiazol-4-ylbenzenesulfonamide] | –
– | N#Cc1cc(S(=O)(=O)Nc2nccs2)ccc1Oc1cnn(Cc2ccc(Cl)cc2)c1 [Example 167, 4-(1-(4-chlorobenzyl)-1H-pyrazol-4-yloxy)-3-cyano-N-(thiazol-2-yl)benzenesulfonamide] | IC50 [3]: 750 nM
– | N#Cc1cc(S(=O)(=O)Nc2ncns2)ccc1Oc1ccc(Cl)cc1-c1cccc(CN2CC(F)(F)C2)n1 [Example 874, 4-(4-chloro-2-{6-[(3,3-difluoroazetidin-1-yl)methyl]pyridin-2-yl}phenoxy)-3-cyano-N-1,2,4-thiadiazol-5-ylbenzenesulfonamide] | IC50 [2]: 350 nM
210 | O=S(=O)(Nc1cscn1)c1cc(F)c(Oc2ccc(OC(F)(F)F)cc2-c2cn[nH]c2)cc1F [Example 750, 2,5-difluoro-4-[2-(1H-pyrazol-4-yl)-4-(trifluoromethoxy)phenoxy]-N-1,3-thiazol-4-ylbenzenesulfonamide] | –
– | CCN1CC(n2nccc2-c2cc(C(F)(F)F)ccc2Oc2ccc(S(=O)(=O)Nc3ncns3)cc2C#N)C1 [Example 1033, 3-Cyano-4-{2-[1-(1-ethylazetidin-3-yl)-1H-pyrazol-5-yl]-4-(trifluoromethyl)phenoxy}-N-1,2,4-thiadiazol-5-ylbenzenesulfonamide] | IC50 [2]: 3.5 nM
– | N#Cc1cc(S(=O)(=O)Nc2ncns2)ccc1Oc1ccc(Cl)cc1-c1ccnn1C1CCOC1 (centres unmarked) [Example 882, 4-{4-chloro-2-[1-(tetrahydrofuran-3-yl)-1H-pyrazol-5-yl]phenoxy}-3-cyano-N-1,2,4-thiadiazol-5-ylbenzenesulfonamide] | IC50 [2]: 40 nM
>3000 | CCc1nnc(C)n1-c1ccc(Oc2ccc(S(=O)(=O)Nc3ccc(F)cn3)cc2C#N)cc1 [Example 568, 3-cyano-4-[4-(3-ethyl-5-methyl-4H-1,2,4-triazol-4-yl)phenoxy]-N-(5-fluoropyridin-2-yl)benzenesulfonamide] | –
270 | Cn1nccc1-c1nc(C(F)(F)F)ccc1Oc1cc(F)c(S(=O)(=O)Nc2cscn2)cc1Cl [Example 656, 5-chloro-2-fluoro-4-{[2-(1-methyl-1H-pyrazol-5-yl)-6-(trifluoromethyl)pyridin-3-yl]oxy}-N-1,3-thiazol-4-ylbenzenesulfonamide] | –
– | O=S(=O)(Nc1nccs1)c1ccc(Oc2ccn(Cc3ccc(Cl)cc3)n2)c(F)c1 [Example 232, 4-[1-(4-chloro-benzyl)-1H-pyrazol-3-yloxy]-3-fluoro-N-thiazol-2-yl-benzenesulfonamide] | IC50 [3]: 1870 nM
– | O=S(=O)(Nc1cscn1)c1ccc(Oc2ccccc2-c2ccccc2)c(F)c1 [Example 271, 4-(biphenyl-2-yloxy)-3-fluoro-N-thiazol-4-yl-benzenesulfonamide] | IC50 [3]: 1150 nM
2.7 | N#Cc1cc(S(=O)(=O)Nc2ncns2)ccc1Oc1ccc(Cl)cc1-c1ccnc(N2CCNCC2)c1 [Example 736, 4-[4-chloro-2-(2-piperazin-1-ylpyridin-4-yl)phenoxy]-3-cyano-N-1,2,4-thiadiazol-5-ylbenzenesulfonamide] | –
8600 | CCNC(=O)c1ccc(-c2cccc(Oc3ccc(S(=O)(=O)Nc4ccc(F)cn4)cc3C#N)c2)cc1 [Example 570, 3′-(2-cyano-4-{[(5-fluoropyridin-2-yl)amino]sulfonyl}phenoxy)-N-ethylbiphenyl-4-carboxamide] | –
18000 | N#Cc1cc(S(=O)(=O)Nc2nccc(C(F)(F)F)n2)ccc1Oc1ccccc1-c1ccccc1 [Example 434, 4-(biphenyl-2-yloxy)-3-cyano-N-[4-(trifluoromethyl)pyrimidin-2-yl]benzenesulfonamide] | –
– | CC(C)(C)n1ccc(-c2cc(F)ccc2Oc2ccc(S(=O)(=O)Nc3nccs3)c(F)c2)n1 [Example 212, 4-(2-(1-tert-butyl-1H-pyrazol-3-yl)-4-fluorophenoxy)-2-fluoro-N-(thiazol-2-yl)benzenesulfonamide] | IC50 [3]: 15400 nM

IC50 [1] [nM] | SMILES | also measured
– | O=S(=O)(Nc1nccs1)c1ccc(Oc2ccc(OCc3ccccc3)c(F)c2)c(F)c1 [Example 120, 4-[4-(benzyloxy)-3-fluorophenoxy]-3-fluoro-N-1,3-thiazol-2-ylbenzenesulfonamide] | IC50 [3]: 37400 nM
25 | Cn1nccc1-c1cc(C2CC2)ccc1Oc1ccc(S(=O)(=O)Nc2nccs2)cc1F [Example 309, 4-[4-Cyclopropyl-2-(1-methyl-1H-pyrazol-5-yl)phenoxy]-3-fluoro-N-1,3-thiazol-2-ylbenzenesulfonamide] | –
– | N#Cc1cc(S(=O)(=O)Nc2nncs2)ccc1Oc1ccc(OC(F)(F)F)cc1-c1ccnnc1 [Example 933, 3-cyano-4-[2-pyridazin-4-yl-4-(trifluoromethoxy)phenoxy]-N-1,3,4-thiadiazol-2-ylbenzenesulfonamide] | IC50 [2]: >100 nM
12000 | N#Cc1cccc(NS(=O)(=O)c2ccc(Oc3ccccc3-c3ccccc3)c(C#N)c2)n1 [Example 421, 4-(biphenyl-2-yloxy)-3-cyano-N-(6-cyanopyridin-2-yl)benzenesulfonamide] | –
– | N#Cc1cc(S(=O)(=O)Nc2nccs2)ccc1Oc1ccc(F)cc1-c1cccc(CO)c1 [Example 161, 3-cyano-4-{[5-fluoro-3′-(hydroxymethyl)biphenyl-2-yl]oxy}-N-1,3-thiazol-2-ylbenzenesulfonamide] | IC50 [3]: 70 nM
17 | O=S(=O)(Nc1ncns1)c1ccc(Oc2ccc(Cl)cc2-c2cn[nH]c2)c(F)c1 [Example 737, 4-[4-chloro-2-(1H-pyrazol-4-yl)phenoxy]-3-fluoro-N-1,2,4-thiadiazol-5-ylbenzenesulfonamide] | –
– | O=S(=O)(Nc1ncns1)c1ccc(Oc2ccc(OC(F)(F)F)cc2-c2ccnnc2)c(Cl)c1 [Example 900, 3-chloro-4-[2-pyridazin-4-yl-4-(trifluoromethoxy)phenoxy]-N-1,2,4-thiadiazol-5-ylbenzenesulfonamide] | IC50 [2]: 2.8 nM
– | N#Cc1cc(S(=O)(=O)Nc2ncns2)ccc1Oc1ccccc1-c1ccc(OC(F)(F)F)cc1 [Example 57, 3-cyano-N-1,2,4-thiadiazol-5-yl-4-{[4′-(trifluoromethoxy)biphenyl-2-yl]oxy}benzenesulfonamide] | IC50 [3]: 660 nM
– | Cc1nnc(NS(=O)(=O)c2cc(Cl)c(Oc3ccc(Cl)cc3-c3ccnn3C)cc2F)s1 [Example 817, 5-chloro-4-[4-chloro-2-(1-methyl-1H-pyrazol-5-yl)phenoxy]-2-fluoro-N-(5-methyl-1,3,4-thiadiazol-2-yl)benzenesulfonamide] | IC50 [2]: 300 nM
140 | Cn1nc(C(F)(F)F)cc1-c1ccc(Oc2ccc(S(=O)(=O)Nc3ncc(F)s3)cc2C#N)cc1 [Example 387, 3-cyano-N-(5-fluoro-1,3-thiazol-2-yl)-4-{4-[1-methyl-3-(trifluoromethyl)-1H-pyrazol-5-yl]phenoxy}benzenesulfonamide] | –
2800 | Cn1cc(-c2cc(OC(F)(F)F)ccc2Oc2cc(F)c(S(=O)(=O)Nc3cscn3)cc2F)cn1 [Example 607, 2,5-difluoro-4-[2-(1-methyl-1H-pyrazol-4-yl)-4-(trifluoromethoxy)phenoxy]-N-1,3-thiazol-4-ylbenzenesulfonamide] | –
– | O=S(=O)(Nc1nccs1)c1ccc(Oc2cccc(OCc3ccccc3)c2)c(F)c1 [Example 119, 4-[3-(benzyloxy)phenoxy]-3-fluoro-N-1,3-thiazol-2-ylbenzenesulfonamide] | IC50 [3]: 17700 nM
12000 | N#Cc1cc(S(=O)(=O)Nc2ncc(Cl)cn2)ccc1Oc1ccccc1-c1ccccc1 [Example 430, 4-(biphenyl-2-yloxy)-N-(5-chloropyrimidin-2-yl)-3-cyanobenzenesulfonamide] | –
4300 | N#Cc1cc(S(=O)(=O)Nc2ncc(F)cn2)ccc1Oc1ccccc1-c1ccccc1 [Example 427, 4-(biphenyl-2-yloxy)-3-cyano-N-(5-fluoropyrimidin-2-yl)benzenesulfonamide] | –
– | N#Cc1cc(S(=O)(=O)Nc2ncns2)ccc1Oc1cnc(N)nc1-c1ccccc1 [Example 23, 4-[(2-amino-4-phenylpyrimidin-5-yl)oxy]-3-cyano-N-1,2,4-thiadiazol-5-ylbenzenesulfonamide] | IC50 [3]: 2030 nM
– | O=S(=O)(Nc1ncns1)c1ccc(Oc2cc(Cl)c(F)cc2-c2ccnnc2)c(F)c1 [Example 934, 4-(5-chloro-4-fluoro-2-pyridazin-4-ylphenoxy)-3-fluoro-N-1,2,4-thiadiazol-5-ylbenzenesulfonamide] | IC50 [2]: 53 nM
4000 | CCn1nc(-c2ccc(Oc3ccc(S(=O)(=O)Nc4ncc(F)s4)cc3C#N)c(F)c2)cc1C(F)(F)F [Example 540, 3-cyano-4-{4-[1-ethyl-5-(trifluoromethyl)-1H-pyrazol-3-yl]-2-fluorophenoxy}-N-(5-fluoro-1,3-thiazol-2-yl)benzenesulfonamide] | –
